Data reported in the Bradley open melting point set (2014).

SMILES | melting point
COc1cc(C=O)cc(Br)c1O [5-bromovanillin] | 164 °C
CCCCC1(CC)C(=O)NC(=O)NC1=O [5-butyl-5-ethylbarbituric acid] | 128 °C
OB(O)c1cc(Cl)c(F)cc1F [5-chloro-2,4-difluorobenzeneboronic acid] | 220 °C
Oc1cc(Cl)ccc1Oc1ccc(Cl)cc1Cl [5-chloro-2-(2,4-dichlorophenoxy)phenol] | 57 °C
OCc1cc(Cl)ccc1O [5-chloro-2-hydroxybenzyl alcohol] | 86 °C
COc1ccc(Cl)cc1N [5-chloro-o-anisidine] | 83 °C
[O-][n+]1onc2cc(Cl)ccc21 [5-chlorobenzofuroxan] | 47 °C
O=Cc1cc(Cl)ccc1O [5-chlorosalicylaldehyde] | 101 °C
N#Cc1ccc(B(O)O)s1 [5-cyanothiophene-2-boronic acid] | 127 °C
CCc1cnc(C(=O)O)c(C(=O)O)c1 [5-ethylpyridine-2,3-dicarboxylic acid] | 153 °C
O=c1[nH]cc(F)c(=O)[nH]1 [5-fluorouracil] | 283 °C
Cc1cc(B(O)O)sc1C=O [5-formyl-4-methylthiophene-2-boronic acid] | 119 °C
Oc1ccc2[nH]ccc2c1 [5-hydroxyindole] | 109 °C
COc1ccc(I)cc1N [5-iodo-2-methoxyaniline] | 86 °C
Cc1ccc(I)cc1N [5-iodo-2-methylaniline] | 48 °C
COc1ccc(C(C)C)cc1B(O)O [5-isopropyl-2-methoxybenzeneboronic acid] | 86 °C
CC(C)C1C(=O)NC(=O)NC1=O [5-isopropylbarbituric acid] | 215 °C
COc1ccc2[nH]c(C)cc2c1 [5-methoxy-2-methylindole] | 87 °C
Cc1[nH]cnc1C=O [5-methylimidazole-4-carboxaldehyde] | 168 °C

SMILES | melting point
Cc1cc(C(=O)O)no1 [5-methylisoxazole-3-carboxylic acid] | 172 °C
Cc1ccc(O)c(C(=O)O)c1 [5-methylsalicylic acid] | 153 °C
O=C(O)c1ccc([N+](=O)[O-])o1 [5-nitro-2-furoic acid] | 187 °C
COc1cc(C=O)cc([N+](=O)[O-])c1O [5-nitrovanillin] | 176 °C
CC(C)CCC[C@@H](C)[C@H]1CC[C@H]2[C@@H]3CC[C@H]4CC(=O)CC[C@]4(C)[C@H]3CC[C@]12C [5alpha-cholestan-3-one] | 130 °C
Nc1ccc2cc(O)ccc2c1 [6-Amino-2-naphthalenol] | 185 °C
CCCc1cc(O)nc(S)n1 [6-Propyl-2-sulfanylpyrimidin-4-ol] | 220 °C
NCCCCCCO [6-amino-1-hexanol] | 57 °C
Cc1nc(N)ccc1Br [6-amino-3-bromo-2-methylpyridine] | 81 °C
Cc1nc(N)ccc1C#N [6-amino-3-cyano-2-methylpyridine] | 165 °C
OB(O)c1ccc(OCc2ccccc2)nc1 [6-benzyloxypyridine-3-boronic acid] | 109 °C
Cc1cc(Br)ncc1B(O)O [6-bromo-4-methylpyridine-3-boronic acid] | 164 °C
COc1cc(Cl)nc(OC)n1 [6-chloro-2,4-dimethoxypyrimidine] | 72 °C
Cc1cc(B(O)O)cnc1Cl [6-chloro-5-methylpyridine-3-boronic acid] | 182 °C
O=C(O)c1ccc2cc(O)ccc2c1 [6-hydroxy-2-naphthoic acid] | 249 °C
COc1ccc2c(c1)C(=O)CC2 [6-methoxy-1-indanone] | 103 °C
COc1ccc2c(c1)CCCC2=O [6-methoxy-1-tetralone] | 79 °C
COc1ccc(C=O)cn1 [6-methoxypyridine-3-carboxaldehyde] | 51 °C
Cc1cccc(C=O)n1 [6-methylpyridine-2-carboxaldehyde] | 31 °C
